{"source": "patent US8012938B2", "about": "“Dermatological and/or cosmetic composition containing polypeptides” (ISP Investments Inc., priority 2004, dated 2011)", "format_in_all_cases": "cell-based", "key": {"[1]": {"test_system": "differentiated 3T3-L1 cells", "assay": "Measurement of glycerol released by adipocytes", "conditions": "active ingredient at 0.5% (solution at 50 ppm); 1 h 30, 3 h, 5 h, 7 h and 24 h; versus control wells", "protocol": "The purpose of this study was to determine the influence of the peptide according to the invention on glycerol release by adipocytes, glycerol being the result of lipolysis.\nDifferentiated 3T3-L1 cells were treated with a 0.5% solution at 50 ppm, containing the peptide of SEQ ID NO:1, representative of the peptide family according to the invention, for periods of 1 h 30, 3 h, 5 h, 7 h and 24 h.\nThe concentration of glycerol was determined using a series of enzymatic reactions leading to the formation of NADH of which the produced quantity was evaluated by spectrophometric readings at 340 nm, the formation of NADH being proportional to the quantity of glycerol released in the culture medium. An internal control of 1 mM glycerol was also used. The values were standardized in comparison to the quantity of proteins for each sample."}, "[2]": {"test_system": "differentiated 3T3-L1 cells", "assay": "Measurement of intracellular cAMP", "conditions": "0.5% solution at 50 ppm; 15 minutes, 30 minutes or 1 hour; compared to cells treated with isoproterenol 1 μM", "protocol": "The objective of this test was to measure the variation of the intracellular concentration of cAMP in adipocytes, in order to deduce a possible activation of the phenomenon of lipolysis.\nThe test was carried out on differentiated 3T3-L1 cells. These adipocytes were treated with the peptide of (SEQ ID NO: 1), i.e. of sequence Pro-Leu-Asp-Thr-Ala-Lys-Val-Arg-Leu-Gln, representative of the peptide family according to the invention, placed in a 0.5% solution at 50 ppm, for periods of 15 minutes, 30 minutes, or 1 hour. In parallel, differentiated 3T3-L1 cells were also treated with isoproterenol (an agent that induces lipolysis), at 1 μM, thus forming a positive control.\nAfter the various incubation periods, in the presence of the active ingredient being tested or in the presence of isoproterenol, the quantity of cAMP contained in adipocytes was measured using the “AMP Biotrak® EIA System” kit purchased from Amersham Biosciences as well as by a test principle, colorimetric ELISA. The kit made cell lysis possible through a solution allowing for the hydrolysis of cellular membranes and the release of intracellular cAMP in the medium. Followed by the binding of antibodies specific to intracellular cAMP extracted from samples, which is placed in competition with cAMP that has been coupled to the enzyme, peroxidase."}, "[3]": {"test_system": "differentiated 3T3-L1 cells", "assay": "Measurement of intracellular ATP", "conditions": "0.5% solution at 50 ppm; period up to 96 hours", "protocol": "The aim of this study was to determine the influence of the peptide according to the invention on the quantity of intracellular ATP. The study was carried out using an “ATP Bioluminescence Assay HS II” kit. Differentiated 3T3-L1 cells were treated with a 0.5% solution at 50 ppm, containing the peptide of SEQ ID NO: 1, representative of the peptide family according to the invention, for a period up to 96 hours. At the end of the incubation time, the wells were emptied of their medium and were rinsed with 2 ml of cold PBS before adding 250 μl of lysis buffer, provided by the kit. The cells were then scraped, and then collected separately in 14 ml tubes. Each well was rinsed with 2×500 μl of cold PBS and everything was again collected in the respective tubes. Each tube was then placed in the polytron for 10 seconds at 18000 rpm. From these samples, a dilution of 1/12000, using cold PBS, was carried out before each reading. ATP quantity assessment was performed on these samples: 50 μl of this dilution were placed in a luma-basin and 50 μl of […] were added. The reading of luminescence started after 10 seconds. The values were standardized compared to the quantity of proteins for each sample. Measurements were taken using a Biocounter M2010A LUMAC®/3M."}, "3T3-L1 cells": {"test_system": "3T3-L1 cells", "assay": "Oil red staining of lipid vacuoles of adipocytes", "conditions": "0.5% solution at 50 ppm", "protocol": "Undifferentiated 3T3-L1 preadipocyte cell lines were seeded in 8-well Lab-Tek slides (for oil red staining), in 12-well plates (for ATP measurement), in 24-well plates (for cAMP measurement) and in 6-well plates (for glycerol measurement) as well as with DMEM culture medium (4.5 g/l) containing antibiotics. These 3T3-L1 preadipocytes were capable of entering, under certain conditions, the terminal differentiation phase.\nOnce the 3T3-L1 cells had reached 100% confluence, they were differentiated by putting them into culture in various mediums, over a period of 6 to 8 days.\nDuring the first 2 days, cells were cultured in the presence of IBMX, dexamethasone, and insulin diluted in DMEM culture medium at 4.5 g/l. Then, they were cultured for two days only in the presence of insulin diluted in DMEM culture medium at 4.5 g/l and, finally, the cells were cultivated for 2 to 3 days in culture medium containing exclusively DMEM 4.5 g/l.\nCell differentiation in mature adipocytes was visualized by the appearance of lipid droplets in the cytoplasm of the cells.\nThe principle of this evaluative test on the effect of peptides rests on a microscopic observation of the number and size of lipid vacuoles of adipocytes after staining. Adipocytes were incubated or not in the presence of the substance to be tested.\n3T3-L1 cells, seeded in 8-well Lab-Teks, were treated with the peptide of SEQ ID NO:1, i.e. of sequence Pro-Leu-Asp-Thr-Ala-Lys-Val-Arg-Leu-Gln, representative of the peptide family according to the invention, placed in a 0.5% solution at 50 ppm. The active ingredient was added at various stages of culture: • At the start of the incubation and until the end of adipocyte differentiation (72 hours of culture until 100% confluence, then for the 6 days of differentiation); • 6 hours after incubation and until the end of cell differentiation (66 hours of culture until 100% confluence, then for the 6 days of differentiation); • Once cells differentiated in the adipocytes, they were treated with the active ingredient for 6, 24, or 48 hours. […]"}, "[4]": {"conditions": "added at the start of incubation or 6 hours after incubation until end of differentiation, compared with control cells"}}, "note": "No end group written: not given here.", "data": [{"sequence": "PLDTAKVRLQ [SEQ ID NO:1, peptide fragment from the UCP family]", "values": [{"measurement": "glycerol release by differentiated cells", "setting": "[1]", "value": "identical"}, {"measurement": "intracellular quantity of cAMP", "setting": "[2]", "value": "no increase"}, {"measurement": "amount of intracellular ATP", "setting": "[3]", "value": "lack of increase"}, {"measurement": "cell morphology", "setting": "3T3-L1 cells; [4]", "value": "less round morphology"}, {"measurement": "content of intra-adipocyte lipid vesicles", "setting": "3T3-L1 cells; [4]", "value": "clearly decreased content of intra-adipocyte lipid vesicles"}, {"measurement": "reduction of intra-adipocyte lipid vesicles in mature adipocytes", "setting": "3T3-L1 cells; applied once differentiation was completed, for 6, 24 or 48 hours", "value": "no reduction was observed"}]}]}
